Reference: patent publication US20250122190A1, “HALOGEN-SUBSTITUTED PYRIDAZINONE COMPOUND AND APPLICATION THEREOF” (MEDSHINE DISCOVERY INC., priority 2021, published 2025)

Legend:
TRPC5 [1] = conditions: TRPC5 inhibition; cited from earlier work
TRPC5 [2] = conditions: TRPC5 inhibition; cited from earlier work; remark: listed apart in the source
hTRPC5-T478C [3] = target: T1, hTRPC5-T478C (Homo sapiens, UniProt Q9UL62); experiment: hTRPC5-T478C patch clamp IC50 assay; type: cell-based; conditions: hTRPC5-T478C-HEK cells, whole-cell patch clamp, Englerin A agonist
T1 sequence (Q9UL62 1-973): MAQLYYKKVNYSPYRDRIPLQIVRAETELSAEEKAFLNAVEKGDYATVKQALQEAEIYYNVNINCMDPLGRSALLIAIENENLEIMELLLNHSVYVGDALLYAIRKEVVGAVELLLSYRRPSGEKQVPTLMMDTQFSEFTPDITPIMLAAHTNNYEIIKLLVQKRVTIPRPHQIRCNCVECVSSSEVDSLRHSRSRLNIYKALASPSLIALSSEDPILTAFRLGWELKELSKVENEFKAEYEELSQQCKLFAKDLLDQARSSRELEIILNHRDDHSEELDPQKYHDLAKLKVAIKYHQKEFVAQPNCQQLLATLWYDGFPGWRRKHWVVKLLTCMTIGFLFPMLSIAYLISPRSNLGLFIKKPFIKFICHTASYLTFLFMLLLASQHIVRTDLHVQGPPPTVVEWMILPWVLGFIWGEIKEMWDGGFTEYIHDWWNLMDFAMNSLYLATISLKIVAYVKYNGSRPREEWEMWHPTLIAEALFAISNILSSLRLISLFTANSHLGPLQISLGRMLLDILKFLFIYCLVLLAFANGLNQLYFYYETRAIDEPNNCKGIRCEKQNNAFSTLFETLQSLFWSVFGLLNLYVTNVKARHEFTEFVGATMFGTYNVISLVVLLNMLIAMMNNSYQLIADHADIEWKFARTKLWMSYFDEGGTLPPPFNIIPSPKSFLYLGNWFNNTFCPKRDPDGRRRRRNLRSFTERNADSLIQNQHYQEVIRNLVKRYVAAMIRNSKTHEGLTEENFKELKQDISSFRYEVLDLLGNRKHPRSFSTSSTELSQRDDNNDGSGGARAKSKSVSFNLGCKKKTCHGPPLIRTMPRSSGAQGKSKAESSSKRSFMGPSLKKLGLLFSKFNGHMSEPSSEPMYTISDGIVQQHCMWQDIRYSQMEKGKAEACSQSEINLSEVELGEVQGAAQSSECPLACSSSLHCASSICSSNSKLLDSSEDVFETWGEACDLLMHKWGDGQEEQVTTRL
Protocol: (§1) Cell culture: hTRPC5-T478C-HEK cells were cultured in a humid environment in 5% CO2 at 37° C.
(§2) Cell culture medium ingredients: • DMEM, Supplier: Gibco, Catalog No. 11965-092; • FBS, Supplier: Gibco, Catalog No. 10099-141C, Concentration: 10%; • Pen/Strep, Supplier: Invitrogen, Catalog No. 15140-122, Concentration: 1%; • Zeocin, Supplier: Invitrogen, Catalog No. R25005, Concentration: 200 μg/mL; • Blasticidin S, Supplier: Invitrogen, Catalog No. R21001, Concentration: 5 μg/mL.
(§3) In general, the TRPC5-T478C cell line was passaged three times weekly. The dilution factor for each passage was 1:3. Once the cells reached about 80% confluence in the T-75 flask, the cell line was digested with trypsin for about 1 minute and the cell suspension was removed from the flask with a pipette. Depending on the dilution ratio, the removed cell suspension would be transferred to another T-75 flask containing cell culture medium. Note that in order to maintain the logarithmic growth of the cells, the confluence of the cells should be maintained at the subconfluent stage and the cells should be passaged once every 2 to 3 days depending on the proliferation rate of the cell line.
(1) Extracellular fluid: sodium chloride (145 mmol/L), potassium chloride (4 mmol/L), magnesium chloride (1.5 mmol/L), glucose (10 mmol/L), hydroxyethyl piperazineethanesulfonic acid (HEPES, 10 mmol/L). The extracellular fluid was adjusted to pH 7.4 with NaOH, and the osmotic pressure was adjusted to about 305 mOsm/L with pure water or sucrose.
(2) Intracellular fluid: cesium chloride (140 mmol/L), ethylene glycol diethyl ether diamine tetraacetic acid (EGTA, 1 mmol/L), magnesium chloride (2 mmol/L), glucose (10 mmol/L), hydroxyethyl piperazineethanesulfonic acid (HEPES, 10 mmol/L). The intracellular fluid was adjusted to pH 7.2 with […], and the osmotic pressure was adjusted to about 295 mOsm/L with pure water or sucrose.
(3) The extracellular fluid was required to be formulated once a week, and the intracellular fluid was required to be subpackaged and stored at −20° C. after formulation.
Positive reference compounds Englerin A and 2-aminoethoxydiphenyl borate (2-APB) were dissolved in 100% DMSO and stored as a 10 mM working solution after formulation. The test compounds were dissolved in 100% DMSO and stored as a 10 mM working solution after formulation. The final concentration of DMSO in the test solution should be less than 0.3%.
Whole-cell patch clamping was performed at room temperature. The electrical signals recorded using an EPC 10 USB amplifier (HEKA Elektronik, Germany) were low-pass filtered at 3 kHz and finally recorded in PatchMaster 2×90.5 software (HEKA Elektronik, Germany). In this step, the quality control standards were that the cell high-resistance seal was formed at a value greater than 500 MOhms and the detection current was greater than 0.3 nA.
The recording electrode was a borosilicate glass capillary (GC150tF-10, Harvard Apparatus Co., UK), which was pulled by a vertical puller (NARISHIGE PC-10, Japan) and polished. In this step, the quality control standard was that the electrode resistance was between 2 to 5 MΩ.
During whole-cell patch clamp recordings, a continuous filling system (BT100-2J, LongerPump, China) was used to continuously perfuse extracellular fluid. The filling system was mounted on the stage of an upright microscope (FN—S2N, Nikon, Japan), and the filling tip was manually positioned under the microscope.
The voltage instructions for hTRPC5-T478C current amplitude detection were as follows: the cells were clamped as follows: the clamping potential changed in a stepped manner from −40 mV to −80 mV (duration: 50 ms); then the clamping voltage ramped up to +80 mV, and the whole process lasted for 200 ms; then clamping was performed at +80 mV for 50 ms, and finally, the voltage returned to the clamping potential of −40 mV. […]

hTRPC5-T478C [4] = target: T1, hTRPC5-T478C; experiment: hTRPC5-T478C FLIPR calcium flux IC50 assay; type: cell-based; conditions: hTRPC5-T478C-HEK cells, Englerin A as channel agonist
Protocol: as §1, §2, §3
(1) Preparation of cell plate: the cells were separated according to the above-mentioned passaging and the cell density and viability were determined using a cell counter. The volume of the cell suspension was adjusted with a cell culture medium. After the density reached to the plating density, 1 μg/mL tetracycline was added to induce hTRPC5-T478C channel expression. The induced hTRPC5-T478C cells were then seeded onto poly-D-lysine (PDL)-coated 384-well plates at a density of 20000 cells/well (30 μL/well). Then the cells were cultured overnight in a cell culture incubator.
(2) Preparation of compound plate: the compounds were generally diluted with DMSO, prepared into a mother liquor and stored in a −20° C. refrigerator. A compound plating program was set on the ECHO processor, and the compounds were plated with ECHO according to the concentration gradient that was already set. In general, 9 concentrations were included with the highest concentration at 10 μM, 3-fold dilution, and 2 replicate wells. Englerin A was used as the channel agonist.
(3) On-machine testing: the cell plates and compound plates were prepared according to the above-mentioned methods. After the cell confluence of the cell plate reached 80%-90%, the cells were removed from the incubator and the testing started. Ca5 dye (Molecular Devices #R8185) was formulated with test buffer. After the cell plate culture medium was removed with Bravo, 25 μL of Ca5 dye was added to each well, and the plate was incubated for 1 hour. After 1 hour, the cell plate and compound plate were placed in FLIPR^TETRA (Molecular Devices, USA) for FLIPR detection.
Data analysis was performed using Excel 2013 (Microsoft, USA) software and GraphPad Prism 6.01 software. The maximum signal was generated by FLIPR software. Data analysis was performed using Excel (2013) and Prism 6.01. Data quality and data stability were controlled using S/B>2.50 and Z factor>0.50. The calculation formula was as follows: S/B=Avg100%/Avg0%; Z factor=1−(3*SD100%+3*SDO %)/|Avg100%-Avg0%.

c1ccc(Cn2c(NCc3ccco3)nc3ccccc32)cc1 [AC1903]
podocyte cytoskeletal remodeling (TRPC5 [1]): protects | protamine sulfate-induced podocyte injury (TRPC5 [1]): inhibits | LPS-induced proteinuria (TRPC5 [2]): significantly reduces

C=C(c1ccc(F)cc1C(F)(F)F)c1ncnc2c1CCN(c1cn[nH]c(=O)c1Cl)C2 [Compound WX003]
IC50 (hTRPC5-T478C [3]): 89.4 nM | IC50 (hTRPC5-T478C [4]): 70 nM

CC(O)c1nc2c(c(Sc3ccc(F)cc3C(F)(F)F)n1)CCN(c1cn[nH]c(=O)c1Cl)C2 (stereo not shown) [Compound WX014]
IC50 (hTRPC5-T478C [4]): 12 nM

O=c1[nH]ncc(N2CCc3c(ncnc3Sc3ccc(F)cc3Cl)C2)c1Cl [Compound WX017]
IC50 (hTRPC5-T478C [4]): 56 nM

Cc1cc(N2CCCCC2)nc2ccccc12 [ML204]
podocyte cytoskeletal remodeling (TRPC5 [1]): protects | protamine sulfate-induced podocyte injury (TRPC5 [1]): inhibits | LPS-induced proteinuria (TRPC5 [2]): significantly reduces
